Source: patent US12065671B2, “Method for reproducible differentiation of clinical-grade retinal pigment epithelium cells” (The United States of America, as represented by the …, priority 2015, dated 2024)
“Also recorded” adds a separate entry of the source.

Experiments:
Assay type in all cases: cell-based, human
iPSC-RPE cells [1] = test: Immunostaining of iPSC-RPE monolayer (beta catenin, pERM, ZO1, RPE65, p27); conditions: for p27 staining: nucleus, higher expression suggests cell cycle exit; for Beta catenin staining: treated vs untreated iPSC-RPE cells (untreated: cytoplasm); for RPE65 staining: treated vs untreated iPSC-RPE cells (untreated: low); for RPE maturation: treatment of RPE cells in RPE-MM
Experimental: (§1) For analysis of the mature RPE cells produced from treatment with PGE2, immunostaining of the RPE monolayer was performed to confirm the hexagonal architecture (FIGS. 4A-4C) of tight junctions by ZO1 staining as well as transmission electron microscopy of the iPSC-RPE cells (FIG. 4D). […] In addition, treatment with IWP2+endo-IWR1 or IWP2 results also results in decreased beta catenin (FIG. 5A) and increased RPE65 (FIG. 5C).

RPE population = test: Inclusion of MEK inhibitor in RDM and RPE-MM during RPE differentiation; conditions: 1 μM in RDM and in RPE-MM (approximately Days 42 through 50)
Experimental: With regard to the methods described in Examples 2 and 3, the inclusion of PD0325901 at a concentration of 1 μM in media for certain windows of time beginning on Day 2 post iPSC plating through the end of the differentiation process, including post-MACS culture, may improve both purity of the RPE population (meaning a decrease in contaminating cells) as well as maturity of the resulting RPE population.

iPSC-RPE cells [2] = test: Transmission electron microscopy of iPSC-RPE cells; conditions: treated vs untreated iPSC-RPE cells
Experimental: as §1

iPSC-derived RPE cells [3] = test: Flow cytometry purity assay for RPE-specific markers
Experimental: The flow cytometry purity assay was performed to determine the percentage of RPE cells obtained by a sorting method of the present disclosure. An aliquot of the cell suspension collected from the MACS assay (2×10^6 cells in a 5 mL FACS tube per sample) was centrifuged at 400×g for 3 min. The cell pellet was resuspended in 1 mL of a stain (e.g., Live-Dead Red stain) and incubated in the dark at room temperature for 15 min. After incubation, 2 mL of wash buffer was added and the cells were centrifuged at 400×g for 3 min to remove any unbound stain. The cell pellet was resuspended in fixation buffer and incubated in the dark at room temperature for 15 min. After incubation, 2 mL of wash buffer were added and the cells were centrifuged at 400×g for 3 min and the supernatant was decanted. The cell pellet was resuspended in 2 mL of wash buffer to make a 1×10^6 cells/mL suspension and 200 μL of the cell suspension was transferred to a FACS tube. To each tube, 2 mL of perm buffer was added and cells were centrifuged at 400×g for 3 min. Primary antibodies for the RPE-specific markers were diluted in perm buffer and 100 μL diluted antibody solution was added to each tube. After incubation overnight at 4° C. in the dark, the cells were washed in 2 mL Perm Buffer two times. Secondary antibody solution was added to each of the tubes and cells were incubated at room temperature in the dark for 1-2 hours. After incubation, the cells were washed twice with Perm Buffer, centrifuged (400×g for 3 min) and resuspended in 100 μL wash buffer for flow cytometry analysis. […]
Functionality of the mature RPE cells treated with IWP2 or endo-IWR1 was also characterized. […] To determine the maturity and functionality of the 50 μM versus 100 μM PGE2 treated cultures, the barrier function in terms of transepithelial electrical resistance (TER) was measured (FIG. 7F) to compare the resistance of substances through the paracellular space as explained in Example 9. […]

iPSC-derived RPE cells [4] = test: Barrier function: transepithelial electrical potential (TEP) and resistance (TER) of RPE monolayer
Experimental: To measure the barrier function of the RPE cells generated by the present methods, transepithelial electrical potential (TEP) was measured the ion gradient across the monolayer generated by energy-driven ion pumps that regulate passage across the cells, and transepithelial electrical resistance (TER) measures resistance of substances through the paracellular space mainly through the fine structure of the tight junction structure (FIG. 7A).
Functionality of the mature RPE cells treated with IWP2 or endo-IWR1 was also characterized. […] To determine the maturity and functionality of the 50 μM versus 100 μM PGE2 treated cultures, the barrier function in terms of transepithelial electrical resistance (TER) was measured (FIG. 7F) to compare the resistance of substances through the paracellular space as explained in Example 9. To determine the percentage of pure RPE cells obtained after treatment of the iPSC-derived RPE cultures with 50 μM or 100 μM in the RPE-MM+PGE2 medium, flow cytometry purity assay was performed for RPE-specific markers (FIG. 7G) as described in Example 6.

[5] = day 75, 100 μM vs 50 μM PGE2, day 54 to day 75

How did the p27 staining (iPSC-RPE cells [1]) turn out when Cc1ccc2nc(NC(=O)CSc3nc4c(c(=O)n3-c3ccccc3)SCC4)sc2c1 [IWP2, N-(6-Methyl-2-benzothiazolyl)-2-[(3,4,6,7-tetrahydro-4-oxo-3-phenylthieno[3,2-d]pyrimidin-2-yl)thio]-acetamide] was run?
Its p27 staining is “higher p27 expression in the nucleus”.

And the Beta catenin staining (iPSC-RPE cells [1])?
Its Beta catenin staining is “decreased; also recorded: on cell membrane”.

And the RPE65 staining (iPSC-RPE cells [1])?
The RPE65 staining was “increased; also recorded: high in the cytoplasm”.

What about the RPE maturation (iPSC-RPE cells [1]) of the same compound?
Its RPE maturation is “produces mature RPE cells”.

[Cl-].[Li+] [LiCl] was tested. Which p27 staining (iPSC-RPE cells [1]) did it give?
Its p27 staining is “weak p27 expression in the nucleus”.

And the Beta catenin staining (iPSC-RPE cells [1])?
The Beta catenin staining was “in the nucleus”.

And the RPE65 staining (iPSC-RPE cells [1])?
Its RPE65 staining is “no staining”.

Which “Purity and maturity of the RPE population” value (RPE population) does the source give for O=C(NOC[C@H](O)CO)c1ccc(F)c(F)c1Nc1ccc(I)cc1F [PD 0325901, N-[(2R)-2,3-Dihydroxypropoxy]-3,4-difluoro-2-[(2-fluoro-4-iodophenyl)amino]-benzamide] here?
Its value is “improve both purity and maturity”.

For CCCCC[C@H](O)/C=C/[C@H]1[C@H](O)CC(=O)[C@@H]1C/C=C\CCCC(=O)O [PGE2, prostaglandin E2], which ZO1 staining (iPSC-RPE cells [1]; both untreated and treated cells) is on record?
The ZO1 staining was “at the tight junctions in the plasma membrane”.

What about the Beta catenin staining (iPSC-RPE cells [1]) of the same compound?
Its Beta catenin staining is “decreased; also recorded: at the membrane”.

And the “pERM (Ezrin) staining” value (iPSC-RPE cells [1]; treated vs untreated iPSC-RPE cells (untreated: low in cytoplasm))?
Its value is “high in the cytoplasm”.

What about the RPE65 staining (iPSC-RPE cells [1]) of the same compound?
Its RPE65 staining is “increased; also recorded: high in the cytoplasm”.

And the RPE maturation (iPSC-RPE cells [1])?
Its RPE maturation is “produces mature RPE cells”.

What about the “Apical processes in transmission electron micrographs” value (iPSC-RPE cells [2]) of the same compound?
Its value is “more extensive apical processes”.

And the “Expression of Best 1 marker (late maturity RPE marker)” value (iPSC-derived RPE cells [3]; [5])?
Its value is “much higher”.

And the “Expression of Pmel17, Tryp1 and Cralbp (RPE-specific markers)” value (iPSC-derived RPE cells [3]; [5])?
The value was “comparable expression”.

And the “Purity and maturity of the RPE population” value (iPSC-derived RPE cells [3]; higher concentration (100 μM vs 50 μM) in RPE-MM+PGE2 medium, TER and flow cytometry)?
The value was “promotes both the purity and maturity”.

What about the “Functional response (TER)” value (iPSC-derived RPE cells [4]; 100 μM vs 50 μM PGE2 in RPE-MM+PGE2 medium, Day 54 to Day 75) of the same compound?
The value was “progressive increase”.

What about the “TEP and TER measurements (functionality)” value (iPSC-derived RPE cells [4]; treated vs untreated RPE cells) of the same compound?
Its value is “increased functionality”.
